Common to all, as to assay type: cell-based
For one test, the system named is IL-17A. Put plainly: Cytokine assay: IL-17A production by human PBMC stimulated with PHA. The note with it: Homo sapiens, PBMC, IC50 class, read-out: IL-17A Inhib. On the procedure: (§1) Cytokine Assay: Analysis of Proliferation of and Cytokine Production by Human PBMC Stimulated with PHA
(§2) Peripheral blood mononuclear cells (PBMC) from healthy human donors were purified using Accuspin™ System-Histopaque-1077 (Sigma) according to the protocol recommended by the manufacturer. Purified PBMC were then washed twice with phosphate-buffered saline (PBS) and resuspended in RPMI1640 culture medium supplemented with 10% dialyzed heat inactivated fetal calf serum, 1.5 mM L-glutamine, 100 U penicillin/ml, and […] (all from PAN Biotech, Aidenbach, Germany). For stimulation, PBMC were seeded at 1×10^5 cells/well, activated with 2 μg/ml phytohaemagglutinin (PHA, Sigma) and incubated with the test compounds for 48 hours. IL-17A, IL-17F and INF-γ were then determined in the culture supernatant using a Luminex BioPlex system, following the manufacturer's instructions (BioRad, Munich, Germany). For screening, compounds were used at 10, 1, 0.1 and 0.01 μM. To determine the IC50, compounds were titrated semilogarithmically.
(§3) Cytokines were determined in the aforementioned culture supernatant using the following methods: IL-17A was measured using the human homodimer IL-17A ELISA Ready Set Go Kit from eBioscience (Frankfurt, Germany); IL-17F using the human IL-17F ELI-Pair from Hölzel DiagnosticaGmBH (Köln, Germany); and IFN-γ using the OptEIA human IFN-g ELISA from BD Bioscience (Heidelberg, Germany), all following the manufacturer's instructions.

Another test concerns IL-17F. Put plainly: Cytokine assay: IL-17F production by human PBMC stimulated with PHA. The following applies: Homo sapiens, PBMC, IC50 class, read-out: IL-17F Inhib. On the procedure:
as §1, §2, §3

For a further test, the system named is INF-γ. Nature of the test: Cytokine assay: INF-γ production by human PBMC stimulated with PHA. The note with it: Homo sapiens, PBMC, IC50 class, read-out: IFN-gamma Inhib. On the procedure: as §1, §2, §3

SMILES strings stand for the structures. Where only a bound is given, the exact number is not on record here.

Turning to `Cc1c(-c2onc(-c3ccccc3Cl)c2-c2ccncn2)cnn1[C@H]1C[C@@](C)(O)C1` [Example 107, 3-{4-[3-(2-chlorophenyl)-4-(pyrimidin-4-yl)-1,2-oxazol-5-yl]-5-methyl-1H-pyrazol-1-yl}-1-methylcyclobutan-1-ol], the values for the IC50 in the test with IL-17A, in the test with IL-17F and in the test on INF-γ were 50 to 500 nM, 50 to 500 nM and less than 50 nM, respectively.
For `Cc1c(-c2onc(-c3c(F)cccc3Cl)c2-c2ccncn2)cnn1[C@H]1C[C@@](C)(O)C1` [Example 108, 3-{4-[3-(2-chloro-6-fluorophenyl)-4-(pyrimidin-4-yl)-1,2-oxazol-5-yl]-5-methyl-1H-pyrazol-1-yl}-1-methylcyclobutan-1-ol], the IC50 in the test on IL-17A, in the test on IL-17F and in the test on INF-γ was 50 to 500 nM throughout.
On to `Cc1c(-c2onc(-c3ccccc3Cl)c2-c2cnccn2)cnn1[C@H]1C[C@@](C)(O)C1` [Example 109, 3-{4-[3-(2-chlorophenyl)-4-(pyrazin-2-yl)-1,2-oxazol-5-yl]-5-methyl-1H-pyrazol-1-yl}-1-methylcyclobutan-1-ol], for which the IC50 was 500 to 5000 nM in the test with IL-17A, 500 to 5000 nM with IL-17F and 50 to 500 nM in the test on INF-γ.
`COc1ccccc1-c1noc(-c2cnn(C[C@@H](C)O)c2C(F)(F)F)c1-c1ncccn1` [Example 113, (2R)-1-{4-[3-(2-methoxyphenyl)-4-(pyrimidin-2-yl)-1,2-oxazol-5-yl]-5-(trifluoromethyl)-1H-pyrazol-1-yl}propan-2-ol]: the IC50 with IL-17A fell in the range of 500 to 5000 nM; in the test on IL-17F it was 50 to 500 nM; in the test on INF-γ, 500 to 5000 nM.
Take `COc1ccccc1-c1noc(-c2cnn(CC(C)(C)O)c2C(F)(F)F)c1-c1ncccn1` [Example 114, 1-{4-[3-(2-methoxyphenyl)-4-(pyrimidin-2-yl)-1,2-oxazol-5-yl]-5-(trifluoromethyl)-1H-pyrazol-1-yl}-2-methylpropan-2-ol]: the IC50 in the test with IL-17A is no less than 5000 nM; in the test on IL-17F it was no less than 5000 nM; in the test with INF-γ it was 500 to 5000 nM.
`COc1ccccc1-c1noc(-c2cnn(C[C@@H](C)O)c2C(F)(F)F)c1-c1ccncn1` [Example 115, (2R)-1-{4-[3-(2-methoxyphenyl)-4-(pyrimidin-4-yl)-1,2-oxazol-5-yl]-5-(trifluoromethyl)-1H-pyrazol-1-yl}propan-2-ol]: the IC50 is 500 to 5000 nM in the test with IL-17A, 500 to 5000 nM in the test with IL-17F and 50 to 500 nM in the test with INF-γ.
`COc1ccccc1-c1noc(-c2cnn(CC(C)(C)O)c2C(F)(F)F)c1-c1ccncn1` [Example 116, 1-{4-[3-(2-methoxyphenyl)-4-(pyrimidin-4-yl)-1,2-oxazol-5-yl]-5-(trifluoromethyl)-1H-pyrazol-1-yl}-2-methylpropan-2-ol]: the IC50 with IL-17A was no less than 5000 nM; with IL-17F it was no less than 5000 nM; in the test on INF-γ it was 500 to 5000 nM.
Consider `COc1cccc(-c2noc(-c3cnn(C[C@@H](C)O)c3C(F)(F)F)c2-c2ncccn2)c1Cl` [Example 117, (2R)-1-{4-[3-(2-chloro-3-methoxyphenyl)-4-(pyrimidin-2-yl)-1,2-oxazol-5-yl]-5-(trifluoromethyl)-1H-pyrazol-1-yl}propan-2-ol], for which the IC50 in the test on IL-17A is 500 to 5000 nM; in the test on IL-17F, 500 to 5000 nM; in the test on INF-γ, 50 to 500 nM.
For `COc1cccc(-c2noc(-c3cnn(C[C@@H](C)O)c3C(F)(F)F)c2-c2ccncn2)c1Cl` [Example 119, (2R)-1-{4-[3-(2-chloro-3-methoxyphenyl)-4-(pyrimidin-4-yl)-1,2-oxazol-5-yl]-5-(trifluoromethyl)-1H-pyrazol-1-yl}propan-2-ol], the IC50 in the test on IL-17A was 500 to 5000 nM; in the test with IL-17F, 500 to 5000 nM; with INF-γ, 50 to 500 nM.
Take `COc1cccc(-c2noc(-c3cnn(CC(C)(C)O)c3C(F)(F)F)c2-c2ccncn2)c1Cl` [Example 120, 1-{4-[3-(2-chloro-3-methoxyphenyl)-4-(pyrimidin-4-yl)-1,2-oxazol-5-yl]-5-(trifluoromethyl)-1H-pyrazol-1-yl}-2-methylpropan-2-ol]: the IC50 is 500 to 5000 nM in the test with IL-17A, no less than 5000 nM in the test with IL-17F and 500 to 5000 nM in the test with INF-γ.
For `CC(C)(O)CCn1ncc(-c2onc(-c3ccccc3Cl)c2-c2ncccn2)c1C(F)(F)F` [Example 122, 4-{4-[3-(2-chlorophenyl)-4-(pyrimidin-2-yl)-1,2-oxazol-5-yl]-5-(trifluoromethyl)-1H-pyrazol-1-yl}-2-methylbutan-2-ol], the IC50 in the test with IL-17A, in the test with IL-17F and with INF-γ was less than 50 nM each time.
`CC(C)(O)CCn1ncc(-c2onc(-c3cccc(O)c3Cl)c2-c2ncccn2)c1C(F)(F)F` [Example 129, 2-chloro-3-{5-[1-(3-hydroxy-3-methylbutyl)-5-(trifluoromethyl)-1H-pyrazol-4-yl]-4-(pyrimidin-2-yl)-1,2-oxazol-3-yl}phenol]: the IC50 in the test on IL-17A fell in the range of 50 to 500 nM; with IL-17F, 50 to 500 nM; in the test with INF-γ, 500 to 5000 nM.
Take `CN1CCN(CCOc2cccc(-c3noc(-c4cnn(CCC(C)(C)O)c4C(F)(F)F)c3-c3ncccn3)c2Cl)CC1` [Example 136, 4-[4-(3-{2-chloro-3-[2-(4-methylpiperazin-1-yl)ethoxy]phenyl}-4-(pyrimidin-2-yl)-1,2-oxazol-5-yl)-5-(trifluoromethyl)-1H-pyrazol-1-yl]-2-methylbutan-2-ol]: the IC50 with IL-17A, with IL-17F and with INF-γ was 50 to 500 nM throughout.
As to `CN(C)CCCOc1cccc(-c2noc(-c3cnn(CCC(C)(C)O)c3C(F)(F)F)c2-c2ncccn2)c1Cl` [Example 140, 4-[4-(3-{2-chloro-3-[3-(dimethylamino)propoxy]phenyl}-4-(pyrimidin-2-yl)-1,2-oxazol-5-yl)-5-(trifluoromethyl)-1H-pyrazol-1-yl]-2-methylbutan-2-ol], the IC50 in the test on IL-17A, with IL-17F and in the test with INF-γ was 50 to 500 nM in each case.
As for `CC(C)(O)CCn1ncc(-c2onc(-c3cccc(OCCCN4CCCC4)c3Cl)c2-c2ncccn2)c1C(F)(F)F` [Example 142, 4-[4-(3-{2-chloro-3-[3-(pyrrolidin-1-yl)propoxy]phenyl}-4-(pyrimidin-2-yl)-1,2-oxazol-5-yl)-5-(trifluoromethyl)-1H-pyrazol-1-yl]-2-methylbutan-2-ol], the IC50 in the test with IL-17A, in the test on IL-17F and in the test with INF-γ was 50 to 500 nM in each case.
Take `CCN(CC)CCCOc1cccc(-c2noc(-c3cnn(CCC(C)(C)O)c3C(F)(F)F)c2-c2ncccn2)c1Cl` [Example 143, 4-[4-(3-{2-chloro-3-[3-(diethylamino)propoxy]phenyl}-4-(pyrimidin-2-yl)-1,2-oxazol-5-yl)-5-(trifluoromethyl)-1H-pyrazol-1-yl]-2-methylbutan-2-ol]: the IC50 in the test with IL-17A, in the test with IL-17F and in the test with INF-γ was less than 50 nM throughout.
As to `COC(=O)c1c(-c2cccc(OCCN(C)C)c2Cl)noc1-c1cnn(C[C@H](C)O)c1C(F)(F)F` [Example 149, methyl 3-{2-chloro-3-[2-(dimethylamino)ethoxy]phenyl}-5-{1-[(2S)-2-hydroxypropyl]-5-(trifluoromethyl)-1H-pyrazol-4-yl}-1,2-oxazole-4-carboxylate], the IC50 fell in the range of 50 to 500 nM with IL-17A, 500 to 5000 nM in the test with IL-17F and 50 to 500 nM with INF-γ.
For the molecule `C[C@@H](O)Cn1ncc(-c2onc(-c3cccc(C(=O)N4CCOCC4)c3Cl)c2-c2ccncn2)c1C(F)(F)F` [Example 154, (R)-(2-chloro-3-(5-(1-(2-hydroxypropyl)-5-(trifluoromethyl)-1H-pyrazol-4-yl)-4-(pyrimidin-4-yl)isoxazol-3-yl)phenyl) (morpholino)methanone], the IC50 is 500 to 5000 nM in the test with IL-17A, no less than 5000 nM in the test with IL-17F and 50 to 500 nM with INF-γ.
The like results for `C[C@@H](O)Cn1ncc(-c2onc(-c3cccc(C(=O)NC4CCC4)c3Cl)c2-c2ccncn2)c1C(F)(F)F` [Example 155, (R)-2-chloro-N-cyclobutyl-3-(5-(1-(2-hydroxypropyl)-5-(trifluoromethyl)-1H-pyrazol-4-yl)-4-(pyrimidin-4-yl)isoxazol-3-yl)benzamide] were, in that order, 50 to 500 nM, 50 to 500 nM and 50 to 500 nM.
For the molecule `CCNC(=O)c1cccc(-c2noc(-c3cnn(C[C@@H](C)O)c3C(F)(F)F)c2-c2ccncn2)c1Cl` [Example 156, (R)-2-chloro-N-ethyl-3-(5-(1-(2-hydroxypropyl)-5-(trifluoromethyl)-1H-pyrazol-4-yl)-4-(pyrimidin-4-yl)isoxazol-3-yl)benzamide], the values for the IC50 with IL-17A, in the test with IL-17F and in the test with INF-γ were no less than 5000 nM, no less than 5000 nM and 500 to 5000 nM, respectively.
Turning to `CC(C)NC(=O)c1cccc(-c2noc(-c3cnn(C[C@@H](C)O)c3C(F)(F)F)c2-c2ccncn2)c1Cl` [Example 157, (R)-2-chloro-3-(5-(1-(2-hydroxypropyl)-5-(trifluoromethyl)-1H-pyrazol-4-yl)-4-(pyrimidin-4-yl)isoxazol-3-yl)-N-isopropylbenzamide], the IC50 in the test with IL-17A lay in the range of 500 to 5000 nM; in the test with IL-17F, 500 to 5000 nM; with INF-γ, 50 to 500 nM.
